Source: BindingDB's records for doi:10.1016/s0960-894x(00)00026-3 (Universit&#224, 2000)

Assays:
[1] = Inhibition of Clostridium histolyticum collagenase (ChC) using a linear regression program
[2] = Inhibition of Clostridium histolyticum collagenase using a linear regression program

SMILES | Ki [1] [µM] | Ki [2] [µM]
CC(C(=O)NO)N(Cc1ccc([N+](=O)[O-])cc1)S(=O)(=O)c1ccc([N+](=O)[O-])c(Cl)c1 (stereo not drawn) [2-[(3-Chloro-4-nitro-benzenesulfonyl)-(4-nitro-benzyl)-amino]-N-hydroxy-propionamide] | 9 | –
CC(C(=O)NO)N(Cc1ccc([N+](=O)[O-])cc1)S(=O)(=O)c1ccc2ccccc2c1 (stereo not drawn) [N-Hydroxy-2-[(naphthalene-2-sulfonyl)-(4-nitro-benzyl)-amino]-propionamide] | – | 8
CC(C(=O)NO)N(Cc1ccc([N+](=O)[O-])cc1)S(C)(=O)=O (stereo not drawn) [N-Hydroxy-2-[methanesulfonyl-(4-nitro-benzyl)-amino]-propionamide] | – | 76
Cc1ccccc1S(=O)(=O)NC(=O)N(Cc1ccc([N+](=O)[O-])cc1)C(C)C(=O)NO (stereo not drawn) [N-hydroxy-2-[({[(2-methylphenyl)sulfonyl]amino}carbonyl)(4-nitrobenzyl)amino]propanamide] | – | 8
Cc1ccc(S(=O)(=O)NC(=O)N(Cc2ccc([N+](=O)[O-])cc2)C(C)C(=O)NO)cc1 (stereo not drawn) [N-hydroxy-2-[({[(4-methylphenyl)sulfonyl]amino}carbonyl)(4-nitrobenzyl)amino]propanamide] | – | 12
CC(C(=O)NO)N(Cc1ccc([N+](=O)[O-])cc1)S(=O)(=O)c1cccc(NC(=O)OC(C)(C)C)c1 (stereo not drawn) [{3-[(1-Hydroxycarbamoyl-ethyl)-(4-nitro-benzyl)-sulfamoyl]-phenyl}-carbamic acid tert-butyl ester] | – | 8
CC(C(=O)NO)N(Cc1ccc([N+](=O)[O-])cc1)S(=O)(=O)c1ccc(NC(=O)OC(C)(C)C)cc1 (stereo not drawn) [{4-[(1-Hydroxycarbamoyl-ethyl)-(4-nitro-benzyl)-sulfamoyl]-phenyl}-carbamic acid tert-butyl ester] | – | 10
COc1ccc(S(=O)(=O)N(Cc2ccc([N+](=O)[O-])cc2)C(C)C(=O)NO)cc1NC(=O)OC(C)(C)C (stereo not drawn) [{5-[(1-Hydroxycarbamoyl-ethyl)-(4-nitro-benzyl)-sulfamoyl]-2-methoxy-phenyl}-carbamic acid tert-butyl ester] | – | 8
